Reference: patent US8618068B2, “Methods and low dose regimens for treating red blood cell disorders” (priority 2009, dated 2013)
“And” between values parts separate entries of the source, which are not always exact repeats. Identical values can stand only once.

Experiments:
[1] = Pharmacokinetics of single doses in 5 baboons; conditions: monkey, in vivo
Procedure: Pharmacokinetics analyses have been conducted with DMB and 2,2-dimethylbutyric acid neutralized with L-arginine in baboons, dogs, and rats. The AUC per dose varied between animals.
Pharmacokinetic analyses of 2,2-dimethylbutyrate was conducted as either the sodium salt or the L-arginine salt, via the oral or intravenous route, as single doses to 5 baboons at doses of 33.3, 83.3, 100, 125 or 167 mg/kg free acid.
The data collected on DMB in plasma allowed an assessment of pharmacokinetic parameters; however, since collection time points were not performed in some baboons during the terminal elimination phase, these determinations are preliminary. The AUC per dose varied between animals. The area under the plasma concentration time-curve (AUC0-24 hr) following oral administration of DMB at 83.3 or 125 mg/kg free acid (100 and 150 mg/kg with salt) ranged from 1962-9363 μmol·h/L ([…]).

[2] = tested on: human peripheral lymphocytes; assay: Chromosome aberrations in human peripheral lymphocytes; assay type: cell-based
Procedure: DMB was examined for the potential to induce chromosome aberrations in human peripheral lymphocytes in the presence and absence of an exogenous metabolic activation system (S9 mix). In the 3-hour cultures (without or with activation), the highest three concentrations (2450, 3500, and 5000 μg/mL) were analyzed for chromosome aberrations. In the 22-hour treatment, 288, 412 and 588 μg/ML were analyzed for chromosome aberrations. […] The aberrations in control cultures were within historical ranges. DMB was therefore considered negative for inducing structural or numerical chromosome aberrations in human peripheral lymphocytes with and without metabolic activation.

absolute reticulocytes = assay: Phase 1 repeat-dose clinical study, absolute reticulocytes; assay type: in vivo, human
Procedure: Mean absolute reticulocytes (10^9 cells/L) in the placebo group at baseline and Day 27 were 51+/−12 and 62+/−20, respectively, which was not statistically significant (p=0.19). Mean absolute reticulocytes increased on average from 50% to 60% above the mean baseline values in the subjects who received study medication. For example, at baseline in Cohort 1 (5 mg/kg, fasted) mean absolute reticulocytes were 50+/−12 and mean peak reticulocytes were 81+/−24, (p=0.02); in Cohort 4 (10 mg/kg) mean baseline reticulocytes were 58+/−8 and mean peak reticulocytes were 84+/−14, (p=0.003), and in Cohort 5 (15 mg/kg; fed), the mean baseline was 46+/−11 and mean peak level was 72+/−11, a 50% increase (p=0.001).

CYP2C9 = target: T1, CYP2C9 (Homo sapiens, UniProt P11712); assay: Cytochrome P450 inhibition in human hepatic microsomes; assay type: in vitro ADME
T1 construct: from tissue; host or cells: human hepatic microsomes
Procedure: (§1) The inhibitory potential of DMB on the human cytochrome P450 activities involved in the metabolism of phenacetin O-deethylase (CYP1A2), bupropion hydroxylase (CYP2B6), amodiaquine N-deethylase (CYP2C8), diclofenac 4′-hydroxylase (CYP2C9), S-mephenyloin 4′-hydroxylase (CYP2C19), bufuralol 1′-hydroxylase (CYP2D6), testosterone 6β-hydroxylase (CYP3A), and midazolam 1′-hydroxylase (CYP3A) was assessed in vitro using human hepatic microsomes. Microsomes were incubated with isoenzyme-selective substrates at concentrations approximating the Km value in the absence and presence of DMB (at concentrations ranging from 0.1 to […]). The extent of inhibition was assessed by comparing activities from control and DMB-treated microsomes. […] Percent activity remaining was high for all cytochrome P450 assays with 80% activity remaining compared with control activities.

CYP2C8 = target: T2, CYP2C8 (Homo sapiens, UniProt P10632); assay: as above; assay type: in vitro ADME
T2 construct: from tissue; host or cells: human hepatic microsomes
Procedure: as §1

CYP2C19 = target: T3, CYP2C19 (Homo sapiens, UniProt P33261); assay: as above; assay type: in vitro ADME
T3 construct: from tissue; host or cells: human hepatic microsomes
Procedure: as §1

CYP2B6 = target: T4, CYP2B6 (Homo sapiens, UniProt P20813); assay: as above; assay type: in vitro ADME
T4 construct: from tissue; host or cells: human hepatic microsomes
Procedure: as §1

CYP3A = assay: as above; assay type: in vitro ADME
Procedure: as §1

CYP2D6 = target: T5, CYP2D6 (Homo sapiens, UniProt P10635); assay: as above; assay type: in vitro ADME
T5 construct: from tissue; host or cells: human hepatic microsomes
Procedure: as §1

CYP1A2 = target: T6, CYP1A2 (Homo sapiens, UniProt P05177); assay: as above; assay type: in vitro ADME
T6 construct: from tissue; host or cells: human hepatic microsomes
Procedure: as §1

in vivo [3] = assay type: in vivo
From the text: (§2) Completed toxicology studies conducted with DMB include a single-dose toxicity study in Sprague-Dawley rats, escalating dose toxicity study in Beagle dogs, a repeat dose study of 14-Day duration in Sprague-Dawley rats and repeat-dose toxicity studies of 28-Day duration in Sprague-Dawley rats and Beagle dogs, and 26-Week studies in Sprague-Dawley rats and Beagle dogs. […] Reproductive toxicity studies include two dose-range finding studies, one in Sprague-Dawley rats, the other in New Zealand white rabbits. DMB was administered once a day (QD) orally via gavage; doses are expressed as the sodium salt. In addition, an array of genotoxicity studies were conducted with DMB.
There were no abnormal macroscopic or microscopic observations associated with the elevated kidney or brain weights. These treatment-related findings were not considered adverse. The NOAEL for DMB administered to Sprague-Dawley rats for a minimum of 181 days was considered to be 500 mg/kg/day, whereas the NOEL for female Sprague-Dawley rats was 100 mg/kg/day.

in vivo [4] = assay: in vivo; design: species or system Beagle dogs; conditions: dog
From the text: as §2
Based on the results of this study, the NOEL for DMB in male and female Beagle dogs was 50 mg/kg/day; and the NOAEL for DMB in male and female Beagle dogs was at least 300 mg/kg/day, the highest dose administered over the 26-Week treatment period.

[5] = compared with control activities

T3 sequence (P33261 whole entry): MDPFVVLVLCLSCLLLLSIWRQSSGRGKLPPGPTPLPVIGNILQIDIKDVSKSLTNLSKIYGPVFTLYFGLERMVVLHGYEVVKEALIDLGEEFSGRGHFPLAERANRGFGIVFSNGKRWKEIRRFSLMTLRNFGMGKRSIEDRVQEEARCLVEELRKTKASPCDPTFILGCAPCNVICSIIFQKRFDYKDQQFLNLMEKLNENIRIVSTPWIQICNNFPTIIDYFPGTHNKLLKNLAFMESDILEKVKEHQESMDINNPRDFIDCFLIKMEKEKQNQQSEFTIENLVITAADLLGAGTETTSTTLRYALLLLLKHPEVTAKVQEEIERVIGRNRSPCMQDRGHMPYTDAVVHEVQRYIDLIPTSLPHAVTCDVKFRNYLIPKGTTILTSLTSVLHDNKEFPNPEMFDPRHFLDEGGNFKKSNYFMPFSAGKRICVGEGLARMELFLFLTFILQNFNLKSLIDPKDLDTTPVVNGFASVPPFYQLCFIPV
T2 sequence (P10632 whole entry): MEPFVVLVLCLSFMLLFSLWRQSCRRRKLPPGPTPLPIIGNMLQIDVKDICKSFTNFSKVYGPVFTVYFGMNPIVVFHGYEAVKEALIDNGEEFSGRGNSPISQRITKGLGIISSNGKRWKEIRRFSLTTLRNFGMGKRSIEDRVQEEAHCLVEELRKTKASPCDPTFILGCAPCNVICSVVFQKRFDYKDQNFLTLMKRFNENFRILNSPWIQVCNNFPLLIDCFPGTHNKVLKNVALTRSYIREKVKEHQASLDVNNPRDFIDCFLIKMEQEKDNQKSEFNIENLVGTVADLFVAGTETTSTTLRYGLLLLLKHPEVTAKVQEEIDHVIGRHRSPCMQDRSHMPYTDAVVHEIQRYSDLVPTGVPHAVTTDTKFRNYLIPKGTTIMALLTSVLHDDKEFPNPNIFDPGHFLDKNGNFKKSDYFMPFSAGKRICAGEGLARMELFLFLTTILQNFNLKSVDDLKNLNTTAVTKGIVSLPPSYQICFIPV
T5 sequence (P10635 whole entry): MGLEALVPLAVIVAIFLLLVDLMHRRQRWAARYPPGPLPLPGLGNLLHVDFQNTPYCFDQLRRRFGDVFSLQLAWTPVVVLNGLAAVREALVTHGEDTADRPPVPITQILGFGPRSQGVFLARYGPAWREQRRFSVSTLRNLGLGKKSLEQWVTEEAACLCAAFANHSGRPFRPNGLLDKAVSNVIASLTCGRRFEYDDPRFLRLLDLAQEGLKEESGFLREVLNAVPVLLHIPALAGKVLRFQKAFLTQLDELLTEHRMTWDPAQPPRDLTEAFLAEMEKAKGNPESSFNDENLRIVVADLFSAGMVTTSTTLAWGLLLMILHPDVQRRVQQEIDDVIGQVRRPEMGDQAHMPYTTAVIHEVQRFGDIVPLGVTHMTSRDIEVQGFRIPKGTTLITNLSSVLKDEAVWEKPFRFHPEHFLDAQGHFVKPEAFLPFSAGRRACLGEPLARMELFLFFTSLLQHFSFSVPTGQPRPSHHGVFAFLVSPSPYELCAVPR
T4 sequence (P20813 whole entry): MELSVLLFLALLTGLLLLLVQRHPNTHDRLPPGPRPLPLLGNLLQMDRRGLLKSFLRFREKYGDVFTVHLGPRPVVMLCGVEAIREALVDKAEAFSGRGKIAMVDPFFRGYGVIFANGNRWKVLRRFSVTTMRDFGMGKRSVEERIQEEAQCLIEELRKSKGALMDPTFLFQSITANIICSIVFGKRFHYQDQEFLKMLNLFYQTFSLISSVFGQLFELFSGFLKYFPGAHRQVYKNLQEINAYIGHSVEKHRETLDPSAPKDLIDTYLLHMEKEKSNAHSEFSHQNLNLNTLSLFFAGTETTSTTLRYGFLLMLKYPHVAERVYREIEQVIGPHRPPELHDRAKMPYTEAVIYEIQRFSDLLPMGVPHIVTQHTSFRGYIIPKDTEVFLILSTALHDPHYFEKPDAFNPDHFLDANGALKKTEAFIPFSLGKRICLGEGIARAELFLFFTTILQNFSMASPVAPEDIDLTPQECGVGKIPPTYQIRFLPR
T6 sequence (P05177 whole entry): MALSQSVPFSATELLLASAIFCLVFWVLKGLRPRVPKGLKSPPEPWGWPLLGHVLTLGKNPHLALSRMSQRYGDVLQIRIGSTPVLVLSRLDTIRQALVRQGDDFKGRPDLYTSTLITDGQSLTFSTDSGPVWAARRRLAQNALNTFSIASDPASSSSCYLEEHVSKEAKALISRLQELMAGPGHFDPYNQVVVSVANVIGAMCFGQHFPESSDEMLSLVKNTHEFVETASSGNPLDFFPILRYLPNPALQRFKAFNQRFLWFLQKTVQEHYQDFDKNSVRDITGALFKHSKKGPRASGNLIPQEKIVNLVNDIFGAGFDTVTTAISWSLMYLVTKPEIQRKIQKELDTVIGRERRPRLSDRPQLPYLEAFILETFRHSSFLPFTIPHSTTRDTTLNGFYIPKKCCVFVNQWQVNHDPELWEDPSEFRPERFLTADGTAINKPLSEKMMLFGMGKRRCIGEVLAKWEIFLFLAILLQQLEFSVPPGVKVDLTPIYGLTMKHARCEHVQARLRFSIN
T1 sequence (P11712 whole entry): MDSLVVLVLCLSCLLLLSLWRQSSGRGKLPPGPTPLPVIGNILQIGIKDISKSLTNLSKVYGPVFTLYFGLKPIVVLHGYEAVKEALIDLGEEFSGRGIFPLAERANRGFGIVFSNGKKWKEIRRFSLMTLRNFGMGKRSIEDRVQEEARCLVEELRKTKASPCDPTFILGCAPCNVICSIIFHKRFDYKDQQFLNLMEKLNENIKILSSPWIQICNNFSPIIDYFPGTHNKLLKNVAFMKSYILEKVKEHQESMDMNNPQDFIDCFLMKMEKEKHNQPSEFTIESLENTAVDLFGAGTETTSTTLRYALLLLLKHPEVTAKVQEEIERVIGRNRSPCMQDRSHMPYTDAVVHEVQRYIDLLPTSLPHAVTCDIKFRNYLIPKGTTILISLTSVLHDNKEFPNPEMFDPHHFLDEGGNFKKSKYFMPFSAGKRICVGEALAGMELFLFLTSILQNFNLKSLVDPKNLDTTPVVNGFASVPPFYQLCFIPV

With CCC(C)(C)C(=O)[O-].[Na+] [DMB, Sodium 2,2-dimethylbutyrate] the clearance [1] was 0.05 to 0.42 L/h/kg, the half-life ([1]; half-life, range) was 1.2 to 7.9 h and the half-life ([1]; median half-life) was 2.7 h. For the same compound, the AUC(0-t) ([1]; po, 125 mg/kg) was 1960 µM·h to 9360 µM·h and 226 ng·h/mL to 1080 ng·h/mL, the bioavailability ([1]; po, Oral bioavailability over 24 hours) was over 60% and the “numerical aberrations (polyploidy or endoreduplication)” value [2] was “No test article-related increase”. For the same compound, the “structural chromosome aberrations compared to vehicle-treated cultures” value ([2]; 3 h ± S9 up to 5000 μg/mL, 22 h up to 588 μg/mL) was “no test article-related increases”, the “induction of structural or numerical chromosome aberrations” value ([2]; with and without metabolic activation) was “negative” and the mean peak reticulocytes (absolute reticulocytes; Cohort 1 (5 mg/kg, fasted), baseline 50+/−12, p=0.02) was 81+/−24 10^9 cells/L. For the same compound, the mean peak reticulocytes (absolute reticulocytes; Cohort 4 (10 mg/kg), baseline 58+/−8, p=0.003) was 84+/−14 10^9 cells/L, the “increase of reticulocytes, baseline to peak” value (absolute reticulocytes; Cohort 5 (15 mg/kg; fed)) was 50% and the mean peak reticulocytes (absolute reticulocytes; Cohort 5 (15 mg/kg; fed), baseline 46+/−11, p=0.001) was 72+/−11 10^9 cells/L. For the same compound, the “inhibition of diclofenac 4′-hydroxylase (CYP2C9)” value (CYP2C9; DMB up to 300 μM) was “no significant inhibition”, the “Percent activity remaining, diclofenac 4′-hydroxylase (CYP2C9)” value (CYP2C9; [5]) was 80% and the “inhibition of amodiaquine N-deethylase (CYP2C8)” value (CYP2C8; DMB up to 300 μM) was “no significant inhibition”. For the same compound, the “Percent activity remaining, amodiaquine N-deethylase (CYP2C8)” value (CYP2C8; [5]) was 80%, the “inhibition of S-mephenyloin 4′-hydroxylase (CYP2C19)” value (CYP2C19; DMB up to 300 μM) was “no significant inhibition” and the “Percent activity remaining, S-mephenyloin 4′-hydroxylase (CYP2C19)” value (CYP2C19; [5]) was 80%. The “inhibition of bupropion hydroxylase (CYP2B6)” value (CYP2B6; DMB up to 300 μM) was “no significant inhibition”, the “Percent activity remaining, bupropion hydroxylase (CYP2B6)” value (CYP2B6; [5]) was 80% and the “inhibition of midazolam 1′-hydroxylase (CYP3A)” value (CYP3A; DMB up to 300 μM) was “no significant inhibition”. For the same compound, the “inhibition of testosterone 6β-hydroxylase (CYP3A)” value (CYP3A; DMB up to 300 μM) was “no significant inhibition”, the “Percent activity remaining, midazolam 1′-hydroxylase (CYP3A)” value (CYP3A; [5]) was 80% and the “Percent activity remaining, testosterone 6β-hydroxylase (CYP3A)” value (CYP3A; [5]) was 80%. The “inhibition of bufuralol 1′-hydroxylase (CYP2D6)” value (CYP2D6; DMB up to 300 μM) was “no significant inhibition”, the “Percent activity remaining, bufuralol 1′-hydroxylase (CYP2D6)” value (CYP2D6; [5]) was 80% and the “inhibition of phenacetin O-deethylase (CYP1A2)” value (CYP1A2; DMB up to 300 μM) was “no significant inhibition”. For the same compound, the “Percent activity remaining, phenacetin O-deethylase (CYP1A2)” value (CYP1A2; [5]) was 80%, the NOAEL at 181 days (in vivo [3]; both sexes, rat, in vivo, minimum of 181 days, oral) was 500 mg/kg/day and the “mortalities or clinical observations” value (in vivo [3]; daily oral, 26 weeks) was “no test article-associated mortalities or clinical observations”. The NOEL (in vivo [3]; female, Sprague-Dawley, rat, in vivo, 181 days) was 100 mg/kg/day, the adverse effects (in vivo [3]; rat, in vivo) was “no adverse effects” and the “mean absolute and relative liver weights” value (in vivo [3]; rat, in vivo, 500 mg/kg/day) was “associated increases”. The NOAEL at 26 weeks (in vivo [4]; both sexes, Beagle) was at least 300 mg/kg/day, the NOEL (in vivo [4]; both, Beagle, 26 weeks) was 50 mg/kg/day and the adverse effects (in vivo [4]) was “no adverse effects”. For the same compound, the clinical observations (in vivo [4]) was “no important treatment-related clinical observations” and the “effects on ECG measurements” value (in vivo [4]) was “No biologically significant effects”.
